Assay results taken from US9750759B2, “Antitumoral compounds” (priority 2008, dated 2017).
Like-named read-outs stand apart in the source and are kept apart here.

Key:
Assay in all cases: cells
Assay type in all cases: cell-based
[1] = tested on: A549; settings: Homo sapiens; for GI50: concentration that produces 50% growth inhibition; for IC (total growth inhibition): total growth inhibition (cytostatic effect), read-out: TGI
Excerpt: (§1) The aim of this assay is to evaluate the in vitro cytostatic (ability to delay or arrest tumor cell growth) or cytotoxic (ability to kill tumor cells) activity of the samples being tested.
(§2) A colorimetric type of assay, using sulforhodamine B (SRB) reaction has been adapted for a quantitative measurement of cell growth and viability (following the technique described by Skehan P et al. J. Natl. Cancer Inst. 1990, 82, 1107-1112).
(§3) This form of assay employs SBS-standard 96-well cell culture microplates (Faircloth et al. Methods in cell science, 1988, 11(4), 201-205; Mosmann et al, Journal of Immunological. Methods, 1983, 65(1-2), 55-63). All the cell lines used in this study, derived from different types of human cancer, were obtained from the American Type Culture Collection (ATCC).
(§4) Cells were maintained in Dulbecco's Modified Eagle Medium (DMEM) supplemented with 10% Fetal Bovine Serum (FBS), 2 mM L-glutamine, 100 U/mL penicillin and 100 U/mL streptomycin at 37° C., 5% CO2 and 98% humidity. For the experiments, cells were harvested from subconfluent cultures using trypsinization and resuspended in fresh medium before counting and plating.
(§5) Cells were seeded in 96 well microtiter plates at 5×10^3 cells per well in aliquots of 150 μL, and allowed to attach to the plate surface for 18 hours in drug free medium. One control (untreated) plate of each cell line was fixed (as described below) and used for time zero reference value. Afterwards, test samples were added to the cultures in ten serial dilutions, in aliquots of 50 μL, ranging from 10 to 0.00262 μg/mL. After 48 hours exposure, the antitumor effect was estimated by the SRB method: Briefly, cells were washed twice with PBS, fixed for 15 min in 1% glutaraldehyde solution, rinsed twice in PBS, and stained in 0.4% SRB solution for 30 min at room temperature. Cells were then rinsed several times with 1% acetic acid solution and air-dried. SRB was then extracted in 10 mM trizma base solution and the absorbance measured in an automated spectrophotometric plate reader at 490 nm. Cell survival was expressed as percentage of control cell growth. The final effect of the sample being tested was estimated by applying the NCI algorithm (Boyd M R and Paull K D. Drug Dev. Res. 1995, 34, 91-104).
(§6) Using the mean±SD of triplicate cultures, a dose-response curve was automatically generated using nonlinear regression analysis. Three reference parameters were calculated (NCI algorithm) by automatic interpolation: GI50=concentration that produces 50% growth inhibition; TGI=total growth inhibition (cytostatic effect) and LC50=concentration that produces 50% net cell killing (cytotoxic effect).

[2] = tested on: HT29; settings: Homo sapiens; for GI50: concentration that produces 50% growth inhibition; for IC (total growth inhibition): total growth inhibition (cytostatic effect), read-out: TGI
Excerpt: as §1, §2, §3, §4, §5, §6

[3] = tested on: MDA-MB-231; settings: Homo sapiens; for GI50: concentration that produces 50% growth inhibition; for IC (total growth inhibition): read-out: TGI
Excerpt: as §1, §2, §3, §4, §5, §6

[4] = MDA-MB-231, 48 h, read-out: LC50
[5] = MDA-MB-231, 48 hours exposure, total growth inhibition (cytostatic effect)

## COC1=CC[C@@H]([C@@H](C)/C=C(C)/C=C\C#CCCC(=O)N[C@H](C(=O)N/C=C\C[C@@H](O)C/C=C(\C)Cl)C(C)(C)C)OC1=O [Compound 99]
[1]; A549, 48 h, read-out: LC50
  CC50: 12200 nM
[1]; A549, 48 hours exposure
  GI50: 3060 nM
  IC (total growth inhibition): 6.62 µM
[2]; HT-29, 48 h, read-out: LC50
  CC50: 5770 nM
[2]; HT-29, HT29, 48 hours exposure
  GI50: 900 nM
  IC (total growth inhibition): 2.21 µM
[3]; [4]
  CC50: 13200 nM
[3]; MDA-MB-231, 48 hours exposure
  GI50: 2720 nM
[3]; [5]
  IC (total growth inhibition): 6.11 µM

## COC1=CC[C@@H]([C@@H](C)/C=C(C)/C=C\C#CC(=O)N[C@H](C(=O)N/C=C\C[C@@H](O)C/C=C(\C)Cl)C(C)C)OC1=O [Compound 65b]
[1]; A549, 48 h, read-out: LC50
  CC50: > 18300 nM
[1]; A549, 48 hours exposure
  GI50: 311 nM
  IC (total growth inhibition): 1.81 µM
[2]; HT-29, 48 h, read-out: LC50
  CC50: > 18300 nM
[2]; HT-29, HT29, 48 hours exposure
  GI50: 183 nM
  IC (total growth inhibition): 0.494 µM
[3]; [4]
  CC50: > 18300 nM
[3]; MDA-MB-231, 48 h
  IC (total growth inhibition): > 18.3 µM
[3]; MDA-MB-231, 48 hours exposure
  GI50: 548 nM

## COC1=CC[C@@H]([C@@H](C)/C=C(C)/C=C\C#CCCC(=O)N[C@H](C(=O)N/C=C\C[C@H](C/C=C(\C)Cl)O[Si](c2ccccc2)(c2ccccc2)C(C)(C)C)C(C)(C)C)OC1=O [Compound 98]
[1]; A549, 48 hours exposure
  GI50: 111 nM
  IC (total growth inhibition): 0.495 µM
[1]; A549, 48 hours exposure, concentration that produces 50% net cell killing, read-out: LC50 (the source's name)
  CC50: > 12100 nM
[2]; HT-29, HT29, 48 hours exposure
  GI50: 53.2 nM
  IC (total growth inhibition): 0.0701 µM
[2]; HT-29, HT29, 48 hours exposure, concentration that produces 50% net cell killing, read-out: LC50 (the source's name)
  CC50: 169 nM
[3]; MDA-MB-231, 48 hours exposure
  GI50: 104 nM
[3]; MDA-MB-231, 48 hours exposure, concentration that produces 50% net cell killing, read-out: LC50 (the source's name)
  CC50: > 12100 nM
[3]; [5]
  IC (total growth inhibition): 0.181 µM

## C/C=C\C[C@@H](C/C=C\NC(=O)[C@@H](NC(=O)C#C/C=C\C(C)=C\[C@H](C)[C@@H]1CC=C(OC)C(=O)O1)C(C)(C)C)OC(N)=O [Compound 81]
[1]; A549, 48 h, read-out: LC50
  CC50: > 17600 nM
[1]; A549, 48 hours exposure
  GI50: 2280 nM
  IC (total growth inhibition): 8.43 µM
[2]; HT-29, 48 h, read-out: LC50
  CC50: > 17600 nM
[2]; HT-29, HT29, 48 hours exposure
  GI50: 1260 nM
  IC (total growth inhibition): 2.98 µM
[3]; [4]
  CC50: > 17600 nM
[3]; MDA-MB-231, 48 h
  IC (total growth inhibition): > 17.6 µM
[3]; MDA-MB-231, 48 hours exposure
  GI50: 2980 nM

## COC1=CC[C@@H]([C@@H](C)/C=C(C)/C=C\C#CC(=O)N[C@H](C(=O)N/C=C\C[C@H](C/C=C(\C)Cl)OC(N)=O)C(C)C)OC1=O [Compound 66b]
[1]; A549, 48 h, read-out: LC50
  CC50: > 16900 nM
[1]; A549, 48 hours exposure
  GI50: 25.4 nM
  IC (total growth inhibition): 0.0813 µM
[2]; HT-29, 48 h, read-out: LC50
  CC50: 42.4 nM
[2]; HT-29, HT29, 48 hours exposure
  GI50: 22 nM
  IC (total growth inhibition): 0.0288 µM
[3]; [4]
  CC50: 4580 nM
[3]; MDA-MB-231, 48 hours exposure
  GI50: 27.1 nM
[3]; [5]
  IC (total growth inhibition): 0.373 µM
